Data as given in the NIST ThermoML archive (doi:10.1016/j.tca.2005.04.019).
± gives the expanded uncertainty stated by the source.

Experiments:
[1] = Molar enthalpy of transition or fusion; conditions: DSC
[2] = DTA

Row | SMILES | Molar enthalpy of transition or fusion ([1]; Crystal 2) | Triple point temperature ([2]; Crystal 2) | Triple point temperature ([2]; Crystal 3) | Molar enthalpy of transition or fusion ([1]; Crystal 3) | Molar enthalpy of transition or fusion ([1]; Crystal 4) | Triple point temperature ([2]; Crystal 4)
1 | CCCCCCCCCC[NH2+]CCCCCCCCCC.[Br-] [N-decyldecan-1-aminium bromide] | 9.08 ± 0.478 kcal/mol | 330.1 ± 3 K |  |  |  | 
2 | CCCCCCCCCC[NH2+]CCCCCCCCCC.O=P([O-])(O)O [N-decyldecan-1-aminium dihydrogen phosphate] | 14.6 ± 0.478 kcal/mol | 354.1 ± 3 K |  |  |  | 
3 | CCCCCCCCCC[NH2+]CCCCCCCCCC.O=[N+]([O-])[O-] [N-decyldecan-1-aminium nitrate] | 15.3 ± 0.239 kcal/mol | 333.1 ± 3 K |  |  |  | 
4 | CCCCCCCCCCCC[NH2+]CCCCCCCCCCCC.[Br-] [N-dodecyldodecan-1-aminium bromide] | 11.7 ± 0.263 kcal/mol | 346.1 ± 3 K |  |  |  | 
5 | CCCCCCCCCCCC[NH2+]CCCCCCCCCCCC.[Cl-] [N-dodecyldodecan-1-aminium chloride] | 11.5 ± 0.239 kcal/mol | 338.1 ± 3 K |  |  |  | 
6 | CCCCCCCCCCCC[NH2+]CCCCCCCCCCCC.O=P([O-])(O)O [N-dodecyldodecan-1-aminium dihydrogen phosphate] | 19.8 ± 0.717 kcal/mol | 363.1 ± 3 K | 328.1 ± 3 K |  |  | 
7 | CCCCCCCCCCCC[NH2+]CCCCCCCCCCCC.O=S(=O)([O-])O [N-dodecyldodecan-1-aminium hydrogen sulfate] |  | 373.1 ± 3 K | 347.1 ± 3 K | 7.17 ± 0.478 kcal/mol |  | 
8 | CCCCCCCCCCCC[NH2+]CCCCCCCCCCCC.[I-] [N-dodecyldodecan-1-aminium iodide] | 9.2 ± 0.239 kcal/mol | 338.1 ± 3 K |  |  |  | 
9 | CCCCCCCCCCCC[NH2+]CCCCCCCCCCCC.O=[N+]([O-])[O-] [N-dodecyldodecan-1-aminium nitrate] | 18.4 ± 0.239 kcal/mol | 339.1 ± 3 K |  |  |  | 
10 | CCCCCCCCCCCC[NH2+]CCCCCCCCCCCC.[O-][Cl+3]([O-])([O-])[O-] [N-dodecyldodecan-1-aminium perchlorate] | 17.2 ± 0.478 kcal/mol | 335.1 ± 3 K |  |  |  | 
11 | CCCCCCCCCCCCCCCCCC[NH2+]CCCCCCCCCCCCCCCCCC.[Br-] [N-octadecyloctadecan-1-aminium bromide] | 19.4 ± 0.478 kcal/mol | 371.15 ± 3 K |  |  |  | 
12 | CCCCCCCCCCCCCCCCCC[NH2+]CCCCCCCCCCCCCCCCCC.[Cl-] [N-octadecyloctadecan-1-aminium chloride] | 23.2 ± 0.478 kcal/mol | 364.35 ± 3 K |  |  |  | 
13 | CCCCCCCCCCCCCCCCCC[NH2+]CCCCCCCCCCCCCCCCCC.O=S(=O)([O-])O [N-octadecyloctadecan-1-aminium hydrogen sulfate] |  | 355.1 ± 3 K | 343.1 ± 3 K | 26.1 ± 0.717 kcal/mol |  | 
14 | CCCCCCCCCCCCCCCCCC[NH2+]CCCCCCCCCCCCCCCCCC.[I-] [N-octadecyloctadecan-1-aminium iodide] | 17.9 ± 0.717 kcal/mol | 366.15 ± 3 K |  |  |  | 
15 | CCCCCCCCCCCCCCCCCC[NH2+]CCCCCCCCCCCCCCCCCC.O=[N+]([O-])[O-] [N-octadecyloctadecan-1-aminium nitrate] | 26.1 ± 0.717 kcal/mol | 366.65 ± 3 K |  |  |  | 
16 | CCCCCCCCCCCCCCCCCC[NH2+]CCCCCCCCCCCCCCCCCC.[O-][Cl+3]([O-])([O-])[O-] [N-octadecyloctadecan-1-aminium perchlorate] | 27.49 ± 0.239 kcal/mol | 361.25 ± 3 K |  |  |  | 
17 | CCCCCCCCNCCCCCCCC.Cl [N-octyl-1-octaminium hydrochloride] | 8.84 ± 0.239 kcal/mol | 294.1 ± 3 K |  |  |  | 
18 | CCCCCCCC[NH2+]CCCCCCCC.[Br-] [N-octyloctan-1-aminium bromide] | 5.98 ± 0.239 kcal/mol | 303.1 ± 5 K |  |  |  | 
19 | CCCCCCCC[NH2+]CCCCCCCC.O=P([O-])(O)O [N-octyloctan-1-aminium dihydrogen phosphate] |  | 333.1 ± 3 K |  |  |  | 
20 | CCCCCCCC[NH2+]CCCCCCCC.[I-] [N-octyloctan-1-aminium iodide] |  | 271.1 ± 1 K | 267.1 ± 1 K | 5.02 ± 0.239 kcal/mol |  | 
21 | CCCCCCCC[NH2+]CCCCCCCC.O=[N+]([O-])[O-] [N-octyloctan-1-aminium nitrate] | 12.8 ± 0.239 kcal/mol | 318.1 ± 3 K |  |  |  | 
22 | CCCCCCCC[NH2+]CCCCCCCC.[O-][Cl+3]([O-])([O-])[O-] [N-octyloctan-1-aminium perchlorate] | 8.84 ± 0.478 kcal/mol | 296.1 ± 10 K |  |  |  | 
23 | CCCCCCCCCC[NH2+]CCCCCCCCCC.[Cl-] [didecylammonium chloride] | 9.56 ± 0.239 kcal/mol | 321.1 ± 3 K |  |  |  | 
24 | CCCCCCCC[NH2+]CCCCCCCC.O=S(=O)([O-])O [dioctylammonium hydrogen sulfate] | 1.15 ± 0.717 kcal/mol | 463.15 ± 3 K | 371.1 ± 3 K | 0.335 ± 0.0717 kcal/mol | 0.98 ± 0.0478 kcal/mol | 289.1 ± 3 K
